Measured values from ChEMBL document CHEMBL4251672, “Penicilindoles A-C, Cytotoxic Indole Diterpenes from the Mangrove-Derived Fungus Eupenicillium sp. HJ002” (J Nat Prod, 2018).
Structures can show the parent of a compound that is named as a salt. Calls of active or inactive are those of the source. The calls are words filed in the database; no cut-off is given here.

What was measured:
[1] = tested on: A549; assay: Cytotoxicity against human A549 cells assessed as decrease in cell viability by MTT assay; assay type: functional, cell-based
[2] = tested on: HeLa; assay: Cytotoxicity against human HeLa cells assessed as decrease in cell viability by MTT assay; assay type: functional, cell-based
[3] = tested on: Vibrio parahaemolyticus; assay: Antibacterial activity against Vibrio parahaemolyticus ATCC 17802 at 20 uM; assay type: functional, organism-based
[4] = tested on: Vibrio alginolyticus; assay: Antibacterial activity against Vibrio alginolyticus ATCC 17749 at 20 uM; assay type: functional, organism-based
[5] = tested on: Bacillus cereus; assay: Antibacterial activity against Bacillus cereus ATCC 11778 at 20 uM; assay type: functional, organism-based
[6] = tested on: Staphylococcus aureus; assay: Antibacterial activity against methicillin-resistant Staphylococcus aureus ATCC 33591 at 20 uM; assay type: functional, organism-based
[7] = tested on: Staphylococcus aureus; assay: Antibacterial activity against Staphylococcus aureus ATCC 25923 at 20 uM; assay type: functional, organism-based
[8] = tested on: Escherichia coli; assay: Antibacterial activity against Escherichia coli ATCC 25922 at 20 uM; assay type: functional, organism-based
[9] = tested on: HepG2; assay: Cytotoxicity against human HepG2 cells assessed as decrease in cell viability by MTT assay; assay type: functional, cell-based

Work on `O=c1[nH]cc(F)c(=O)[nH]1` [FLUOROURACIL] yielded an IC50 [1] of 36.8 µM and an IC50 [2] of 28 µM.
For `COc1cccc2c1C(=O)c1c(O)c3c(c(O)c1C2=O)C[C@@](O)(C(=O)CO)C[C@@H]3O[C@H]1C[C@H](N)[C@H](O)[C@H](C)O1` [DOXORUBICIN HYDROCHLORIDE], the IC50 [2] was 0.1 µM.
With `CC(C)=CCC[C@@]12[C@@H](O)CC[C@@H](C)[C@]1(C)CC[C@@](C)(O)[C@H]2Cc1c[nH]c2ccccc12` the Activity [3] was “inactive”, the IC50 [1] was 5.5 µM and the Activity [4] was “inactive”. The Activity [5] was “inactive”, the Activity [6] was “inactive” and the Activity [7] was “inactive”. For the same compound, the Activity [8] was “inactive”, the IC50 [9] was 1.5 µM and the IC50 [2] was 23.3 µM.
With `CC(C)=CCC[C@@]12C(=O)CC[C@@H](C)[C@]1(C)CC[C@@](C)(O)[C@H]2Cc1c[nH]c2ccccc12` the Activity [3] was “inactive”, the IC50 [1] was 18.6 µM and the Activity [4] was “inactive”. The Activity [5] was “inactive”, the Activity [6] was “inactive” and the Activity [7] was “inactive”. For the same compound, the Activity [8] was “inactive”, the IC50 [9] was 47.2 µM and the IC50 [2] was 20 µM.
